In article PMC10101933 (European journal of medicinal chemistry, 2023):

Tests used:
[1] = tested on: Nrf2 target genes (GSTM3, HMOX1 and NQO1); test: RT-qPCR of Nrf2-ARE regulated genes in NCM460D cells; type: cell-based; settings: 100 μM; for induction of the Nrf2 target genes (HMOX1, GSTM3, NQO1), in words: vs GAPDH and HPRT housekeeping genes
[2] = target: T1, Keap1 Kelch domain protein (Homo sapiens, UniProt Q14145); test: Time-resolved fluorescence resonance energy transfer; type: binding
[3] = target: T1, Keap1 Kelch domain protein; test: Fluorescence polarization; type: binding

T1 sequence (Q14145 321-609 limits assumed): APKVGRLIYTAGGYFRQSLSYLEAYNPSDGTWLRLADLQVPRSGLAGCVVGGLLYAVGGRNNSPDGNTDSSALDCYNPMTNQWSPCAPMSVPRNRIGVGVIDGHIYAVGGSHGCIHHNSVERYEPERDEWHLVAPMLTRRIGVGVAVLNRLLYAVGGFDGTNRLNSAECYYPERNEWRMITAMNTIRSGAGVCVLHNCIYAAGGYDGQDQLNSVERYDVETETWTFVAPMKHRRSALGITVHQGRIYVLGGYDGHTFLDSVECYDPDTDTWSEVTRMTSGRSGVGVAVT

SMILES: COc1ccc(-c2cc(N(CC(=O)O)S(=O)(=O)c3ccc(OC)cc3)c3ccccc3c2N(CC(=O)O)S(=O)(=O)c2ccc(OC)cc2)cc1 [Compound 12b, 2,2’-((2-(4-Methoxyphenyl)naphthalene-1,4-diyl)bis(((4-methoxyphenyl)sulfonyl)azanediyl))diacetic acid]
- induction of the Nrf2 target genes (HMOX1, GSTM3, NQO1), in words [1]: significant induction

SMILES: COc1ccc(S(=O)(=O)N(CC(=O)O)c2cc(-c3ccc(C#N)cc3)c(N(CC(=O)O)S(=O)(=O)c3ccc(OC)cc3)c3ccccc23)cc1 [Compound 12c, 2,2’-((2-(4-Cyanophenyl)naphthalene-1,4-diyl)bis(((4-methoxyphenyl)sulfonyl)azanediyl))diacetic acid]
- induction of the Nrf2 target genes (HMOX1, GSTM3, NQO1), in words [1]: no induction

SMILES: COc1ccc(S(=O)(=O)N(CC(=O)O)c2cc(-c3ccc(N4C(=O)c5ccccc5C4=O)cc3)c(N(CC(=O)O)S(=O)(=O)c3ccc(OC)cc3)c3ccccc23)cc1 [Compound 12d, 2,2’-((2-(4-(1,3-Dioxoisoindolin-2-yl)phenyl)naphthalene-1,4-diyl)bis(((4-methoxyphenyl)sulfonyl)azanediyl))diacetic acid]
- induction of the Nrf2 target genes (HMOX1, GSTM3, NQO1), in words [1]: significant induction

SMILES: COc1ccc(S(=O)(=O)N(CC(N)=O)c2cc(CCC(=O)O)c(N(CC(N)=O)S(=O)(=O)c3ccc(OC)cc3)c3ccccc23)cc1 [Compound 17a, 3-(1,4-Bis((N-(2-amino-2-oxoethyl)-4-methoxyphenyl)sulfonamido)naphthalen-2-yl)propanoic acid]
- fold decrease in potency relative to 2a ([2]; as indicated by TR-FRET IC50 and Ki): 3 fold

SMILES: COc1ccc(S(=O)(=O)N(CC(=O)O)c2cc(CCC(=O)N3CCOCC3)c(N(CC(=O)O)S(=O)(=O)c3ccc(OC)cc3)c3ccccc23)cc1 [Compound 17c, 2,2’-((2-(3-Morpholino-3-oxopropyl)naphthalene-1,4-diyl)bis(((4-methoxyphenyl)sulfonyl)azanediyl))diacetic acid]
- fold increase in binding affinity vs 17b ([2]; as indicated by the TR-FRET Ki): 2 fold
- induction of the Nrf2 target genes (HMOX1, GSTM3, NQO1), in words [1]: significant induction

SMILES: COc1ccc(S(=O)(=O)N(CC(=O)O)c2cc(CCC(N)=O)c(N(CC(=O)O)S(=O)(=O)c3ccc(OC)cc3)c3ccccc23)cc1 [Compound 21, 2,2’-((2-(3-Amino-3-oxopropyl)naphthalene-1,4-diyl)bis(((4-methoxyphenyl)sulfonyl)azanediyl))diacetic acid]
- fold drop in inhibitory activity vs 2a ([2]; as indicated by the Ki value from the TR-FRET assay): ~2 fold

SMILES: COc1ccc(S(=O)(=O)N(CC(=O)O)c2cc(CCCN3C(=O)c4ccccc4C3=O)c(N(CC(=O)O)S(=O)(=O)c3ccc(OC)cc3)c3ccccc23)cc1 [Compound 24a, 2,2’-((2-(3-(1,3-Dioxoisoindolin-2-yl)propyl)naphthalene-1,4-diyl)bis(((4-methoxyphenyl)sulfonyl)azanediyl))diacetic acid]
- Ki value (in words) ([2]; from TR-FRET assay): subnanomolar range
- mRNA levels of GSTM3, HMOX1 and NQO1, fold vs vehicle (DMSO) control [1]: 2.4–11.7 fold
- induction of the Nrf2 target genes (HMOX1, GSTM3, NQO1), in words [1]: significant induction

SMILES: COc1ccc(S(=O)(=O)N(CC(=O)O)c2cc(CCCN(C)Cc3ccccc3)c(N(CC(=O)O)S(=O)(=O)c3ccc(OC)cc3)c3ccccc23)cc1 [Compound 24b, 2,2’-((2-(3-(Benzyl(methyl)amino)propyl)naphthalene-1,4-diyl)bis(((4-methoxyphenyl)sulfonyl)azanediyl))diacetic acid]
- IC50 [3]: 276 ± 17 nM
- fold reduction in potency vs 24a ([2]; TR-FRET assay): more than 20 fold
